In brackets after ≈: the same amount, converted by molar mass.
Experiments:
Type in all cases: cell-based
P. aeruginosa MP-3 = assay: Broth dilution MIC determination (CLSI), P. aeruginosa MP-3; conditions: Pseudomonas aeruginosa, MP3; strain MP-3, broth dilution
K. pneumoniae MP-648 = assay: Broth dilution MIC determination (CLSI), K. pneumoniae MP-648; conditions: Klebsiella pneumoniae, MP648; strain MP-648, broth dilution
K. pneumoniae MP-546 = assay: Broth dilution MIC determination (CLSI), K. pneumoniae MP-546; conditions: Klebsiella pneumoniae, MP546; strain MP-546, broth dilution
S. aureus MP-12 = assay: Broth dilution MIC determination (CLSI), S. aureus MP-12; conditions: Staphylococcus aureus, MP12; strain MP-12, broth dilution
E. coli MP-4 = assay: Broth dilution MIC determination (CLSI), E. coli MP-4; conditions: Escherichia coli, MP4; strain MP-4, broth dilution; read-out: MIC E. coli MP-4
A. baumannii MP-15 = assay: Broth dilution MIC determination (CLSI), A. baumannii MP-15; conditions: Acinetobacter baumannii, MP15; strain MP-15, broth dilution; read-out: MIC A. baumanii MP-15

SMILES	MIC (P. aeruginosa MP-3) [µg/mL]	MIC (K. pneumoniae MP-648) [µg/mL]	MIC (K. pneumoniae MP-546) [µg/mL]	MIC (S. aureus MP-12) [µg/mL]	MIC (E. coli MP-4) [µg/mL]	MIC (A. baumannii MP-15) [µg/mL]
CO[C@]1(C)C[C@@H](C)CN(C)[C@@H](C2CCN(C(C)[C@H]3COC(C)(C)O3)CC2)COC(=O)C(C)(C)C(=O)[C@H](C)[C@H]1O[C@@H]1O[C@H](C)C[C@H](N(C)C)[C@H]1O (mixture of isomers) [Compound 172, (3S,6R,8R,9R,10R)-3-(1-(1-((S)-2,2-dimethyl-1,3-dioxolan-4-yl)ethyl)piperidin-4-yl)-9-(((2S,3R,4S,6R)-4-(dimethylamino)-3-hydroxy-6-methyltetrahydro-2H-pyran-2-yl)oxy)-8-methoxy-4,6,8,10,12,12-hexamethyl-1-oxa-4-azacyclotridecane-11,13-dione]	> 32	< 4	< 4	4 to 32 (≈ 5.62 to 44.9 µM)	< 4	> 32
CO[C@]1(C)C[C@@H](C)CN(C)[C@H](C2CN(Cc3ccn(C)n3)C2)COC(=O)C(C)(C)C(=O)[C@H](C)[C@H]1O[C@@H]1O[C@H](C)C[C@H](N(C)C)[C@H]1O [Compound 16, (3R,6R,8R,9R,10R)-9-(((2S,3R,4S,6R)-4-(dimethylamino)-3-hydroxy-6-methyltetrahydro-2H-pyran-2-yl)oxy)-8-methoxy-4,6,8,10,12,12-hexamethyl-3-(1-((1-methyl-1H-pyrazol-3-yl)methyl)azetidin-3-yl)-1-oxa-4-azacyclotridecane-11,13-dione]	> 32	4 to 32 (≈ 6.16 to 49.2 µM)	4 to 32 (≈ 6.16 to 49.2 µM)	4 to 32 (≈ 6.16 to 49.2 µM)	< 4	> 32
CO[C@]1(C)C[C@@H](C)CN(C)[C@@H]([C@H]2CC[C@H](N(C)C(=O)CNC3CC3)CC2)COC(=O)C(C)(C)C(=O)[C@H](C)[C@H]1O[C@@H]1O[C@H](C)C[C@H](N(C)C)[C@H]1O [Compound 180, 2-(cyclopropylamino)-N-((1S,4r)-4-((3S,6R,8R,9R,10R)-9-(((2S,3R,4S,6R)-4-(dimethylamino)-3-hydroxy-6-methyltetrahydro-2H-pyran-2-yl)oxy)-8-methoxy-4,6,8,10,12,12-hexamethyl-11,13-dioxo-1-oxa-4-azacyclotridecan-3-yl)cyclohexyl)-N-methylacetamide]	> 32	–	> 32	> 32	4 to 32 (≈ 5.64 to 45.1 µM)	> 32
CO[C@]1(C)C[C@@H](C)CN(C)[C@H]([C@@H]2CCN(C)C2)COC(=O)C(C)(C)C(=O)[C@H](C)[C@H]1O[C@@H]1O[C@H](C)C[C@H](N(C)C)[C@H]1O [Compound 182, (3R,6R,8R,9R,10R)-9-(((2S,3R,4S,6R)-4-(dimethylamino)-3-hydroxy-6-methyltetrahydro-2H-pyran-2-yl)oxy)-8-methoxy-4,6,8,10,12,12-hexamethyl-3-((R)-1-methylpyrrolidin-3-yl)-1-oxa-4-azacyclotridecane-11,13-dione]	> 32	–	< 4	> 32	< 4	> 32
CO[C@]1(C)C[C@@H](C)CN(C)[C@@H](C2CN(C(=O)CN(C)C)C2)COC(=O)C(C)(C)C(=O)[C@H](C)[C@H]1O[C@@H]1O[C@H](C)C[C@H](N(C)C)[C@H]1O [Compound 184, (3S,6R,8R,9R,10R)-9-(((2S,3R,4S,6R)-4-(dimethylamino)-3-hydroxy-6-methyltetrahydro-2H-pyran-2-yl)oxy)-3-(1-(dimethylglycyl)azetidin-3-yl)-8-methoxy-4,6,8,10,12,12-hexamethyl-1-oxa-4-azacyclotridecane-11,13-dione]	> 32	–	< 4	4 to 32 (≈ 6.24 to 49.9 µM)	< 4	> 32
CO[C@]1(C)C[C@@H](C)CN(C)[C@H](c2ccc(-c3cccnc3)cc2)COC(=O)C(C)(C)C(=O)[C@H](C)[C@@H]1O[C@@H]1O[C@@H](C)C[C@H](N(C)C)[C@H]1O [Compound 188]	> 32	–	> 32	> 32	> 32	> 32
CO[C@]1(C)C[C@@H](C)CN(C)[C@@H](C2(CCN(C)CC3CC3)CC2)COC(=O)C(C)(C)C(=O)[C@H](C)[C@H]1O[C@@H]1O[C@H](C)C[C@H](N(C)C)[C@H]1O [Compound 196]	> 32	> 32	–	> 32	4 to 32 (≈ 6.14 to 49.1 µM)	> 32
CO[C@]1(C)C[C@@H](C)CN(C)[C@@H](C2(CCN(C)C(C)=O)CC2)COC(=O)C(C)(C)C(=O)[C@H](C)[C@H]1O[C@@H]1O[C@H](C)C[C@H](N(C)C)[C@H]1O [Compound 197]	> 32	> 32	–	> 32	4 to 32 (≈ 6.25 to 50 µM)	> 32
CO[C@]1(C)C[C@@H](C)CN(C)[C@](C)(C2CCN(C)CC2)COC(=O)C(C)(C)C(=O)[C@H](C)[C@H]1O[C@@H]1O[C@H](C)C[C@H](N(C)C)[C@H]1O [Compound 198]	> 32	> 32	–	> 32	> 32	> 32
CO[C@]1(C)C[C@@H](C)CN(C)[C@@H](C2CCN(C[C@@H](N)CO)CC2)CO[C@@H](O)C(C)(C)C(=O)[C@H](C)[C@H]1O[C@@H]1O[C@H](C)C[C@H](N(C)C)[C@H]1O [Compound 199]	> 32	–	< 4	4 to 32 (≈ 6.07 to 48.6 µM)	< 4	> 32
CO[C@]1(C)C[C@@H](C)CN(C)[C@@H](C2CCN(C[C@H](CO)N(C)C)CC2)CO[C@@H](O)C(C)(C)C(=O)[C@H](C)[C@H]1O[C@@H]1O[C@H](C)C[C@H](N(C)C)[C@H]1O [Compound 200]	> 32	> 32	–	4 to 32 (≈ 5.82 to 46.6 µM)	4 to 32 (≈ 5.82 to 46.6 µM)	> 32
CO[C@]1(C)C[C@@H](C)CN(C)[C@@H](C2CCN(C[C@@H]3COC(=O)N3)CC2)CO[C@@H](O)C(C)(C)C(=O)[C@H](C)[C@H]1O[C@@H]1O[C@H](C)C[C@H](N(C)C)[C@H]1O [Compound 201]	> 32	> 32	–	> 32	4 to 32 (≈ 5.84 to 46.7 µM)	> 32
CO[C@]1(C)C[C@@H](C)CN(C)[C@@H](C2CCN(C[C@@H]3COC(=O)N3C)CC2)CO[C@@H](O)C(C)(C)C(=O)[C@H](C)[C@H]1O[C@@H]1O[C@H](C)C[C@H](N(C)C)[C@H]1O [Compound 202]	> 32	> 32	–	> 32	4 to 32 (≈ 5.72 to 45.8 µM)	> 32
CO[C@]1(C)C[C@@H](C)CN(C)[C@H](C2CN(CC(=O)O)C2)COC(=O)C(C)(C)C(=O)[C@H](C)[C@H]1O[C@@H]1O[C@H](C)C[C@H](N(C)C)[C@H]1O [Compound 203]	> 32	> 32	–	> 32	4 to 32 (≈ 6.52 to 52.1 µM)	> 32
CO[C@]1(C)C[C@@H](C)CN[C@H](c2ccccc2)COC(=O)[C@H](C)C(=O)[C@H](C)[C@H]1O[C@@H]1OC(C)CC(N(C)C)C1O (stereo partly shown) [Compound 204]	> 32	–	> 32	> 32	> 32	> 32
CO[C@]1(C)C[C@@H](C)CN[C@@H](c2ccccc2)COC(=O)[C@H](C)C(=O)[C@H](C)[C@H]1O[C@@H]1OC(C)CC(N(C)C)C1O (stereo partly shown) [Compound 205]	> 32	–	> 32	> 32	> 32	> 32
